Experimental findings from US20050255131A1, “Clindamycin compositions and delivery system therefor” (priority 2004, published 2005) are described below.

Series [1] in a line: Solubility of clindamycin phosphate in water, glycerin and water/glycerin co-solvent. It counts as physicochemical. The text has this: For the clindamycin phosphate solution, a maximum of about 6% salt is soluble in water. This solution is not stable upon long-term storage at elevated temperatures. In order to utilize the chamber in a chamber delivery system wherein the contents of a small chamber are combined with the contents of a larger chamber, compositions containing a concentration of clindamycin phosphate higher than 6% are desirable. In accordance with the present disclosure, solutions containing concentrations of clindamycin in excess of 6% in a minimum amount of water may be prepared by using co-solvents such as glycerin. Clindamycin phosphate by itself is not soluble in glycerin alone. […] Thus, the present compositions may contain a solution of water, clindamycin and glycerin, wherein the amount of water is insufficient alone to solubilize the clindamycin. The term “solubilize” as used with respect to solubilizing clindamycin refers to the ability to dissolve clindamycin and optionally with heating and stirring and maintaining clindamycin in solution at room temperature for at least 24 hours. […] By increasing the concentration of clindamycin in solution by means of a co-solvent such as glycerin, the present methods make it possible to dissolve the salt in a small amount of water. […]

Series [2] can be described thus: Storage stability of clindamycin phosphate solutions. The note with it: solution in water; elevated temperatures. It is filed as physicochemical. The text has this: For the clindamycin phosphate solution, a maximum of about 6% salt is soluble in water. This solution is not stable upon long-term storage at elevated temperatures. In order to utilize the chamber in a chamber delivery system wherein the contents of a small chamber are combined with the contents of a larger chamber, compositions containing a concentration of clindamycin phosphate higher than 6% are desirable. In accordance with the present disclosure, solutions containing concentrations of clindamycin in excess of 6% in a minimum amount of water may be prepared by using co-solvents such as glycerin. Clindamycin phosphate by itself is not soluble in glycerin alone. […] Thus, the present compositions may contain a solution of water, clindamycin and glycerin, wherein the amount of water is insufficient alone to solubilize the clindamycin. The term “solubilize” as used with respect to solubilizing clindamycin refers to the ability to dissolve clindamycin and optionally with heating and stirring and maintaining clindamycin in solution at room temperature for at least 24 hours.

Turning to `CCC[C@@H]1C[C@@H](C(=O)N[C@@H]([C@H]2O[C@H](SC)[C@H](OP(=O)(O)O)[C@@H](O)[C@H]2O)[C@H](C)Cl)N(C)C1` [clindamycin phosphate], the “solubility in glycerin alone” value in series [1] (glycerin alone, no water) is “not soluble”. The “maximum salt soluble in water” value in series [1] (water alone) was “about 6%”. In addition, in series [2], the “stability of aqueous solution upon long-term storage” value is reported as “not stable”.
